Experimental data as given in patent US20130011376A1, “Methods for Enhancing Natural Killer Cell Proliferation and Activity” (GAMIDA CELL LTD., priority 2009, published 2013).

Key:
[1] = tested on: T-cell depleted (CD3 or CD3/CD19 depleted) peripheral blood NK cell populations; experiment: CD62L expression on T-cell depleted peripheral blood NK cell cultures (FACS); format: cell-based, human; conditions: 2.5 and 5.0 mM nicotinamide, after 7, 14 and 21 days in culture
Protocol: For depletion procedure, total nuclear cells from umbilical cord blood (CB), bone marrow (BM) or peripheral blood (PB) cells were layered on a Ficoll-Hypaque gradient (1.077 g/mL; Sigma), and centrifuged at 800×g for 30 minutes for separation of the mononuclear cells. The cells in the interface layer were collected and washed three times in phosphate-buffered saline (PBS) (Biological Industries, Israel) containing 0.5% HSA. Optionally, cells are not separated on the Ficoll-Hypaque gradient but washed three times in phosphate-buffered saline (PBS) (Biological Industries) containing 0.5% HSA (“total mononuclear fraction”). […] After negative depletion the cells were counted and characterized by FACS analysis.
3. […] To estimate number of cells in culture, cell samples were counted following staining with trypan blue. […]
The cells were washed with a PBS solution containing 1% BSA, and stained (at 4° C. for 30 min) with fluorescein isothiocyanate (FITC)- or phycoerythrin (PE)-conjugated antibodies or allophycocyanin (APC). The cells were then washed in the above buffer and analyzed using a FACScalibur® flow cytometer (Becton Dickinson, San Jose, Calif., USA). […] Emission of 10^4 cells was measured using logarithmic amplification, and analyzed using the CellQuest software (Becton Dickinson). […]

[2] = tested on: colo205 colorectal adenocarcinoma cell line; format: cell-based; conditions: 5 mM nicotinamide, all E:T ratios tested (1:1 to 10:1)

NC(=O)c1cccnc1 [nicotinamide]
CD62L-positive cells among the NK cells [1]: increased percentage
cytotoxic potential towards solid tumor cells [2]: increased killing potential
